US8299056B2 (Signal Pharmaceuticals, LLC, priority 2008, dated 2012)
Where two headings read alike, the source gives them in different places.

Biological target: T1, Syk (Homo sapiens, UniProt P43405)
T1 construct: purchased Carna Biosciences
Assay: Syk HTRF assay
Type: biochemical
Outline: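 Read-out is the 665 nm/615 nm time-resolved fluorescence ratio after EDTA stop and Eu-anti-phosphotyrosine plus streptavidin-DyLight 647 detection. Reaction ran 1 h at room temperature with start mix of 87.5 μM ATP and 80 nM substrate peptide in pH 7.6 HEPES/MgCl2 buffer.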

[1] = activity levels A-D, read-out: Activity Level (IC50 in the Syk HTRF assay)
[2] = IC50 activity level, read-out: Activity Level
[3] = read-out: Activity Level (Syk HTRF assay IC50)

SMILES | IC50 [1] [nM] | IC50 [3] [nM] | also measured
COCc1n[nH]c2cc(Nc3nc4cccc(N[C@H]5CC[C@@H](O)CC5)n4n3)ccc12 [Example 231, cis-4-(2-(3-(methoxymethyl)-1H-indazol-6-ylamino)-[1,2,4]triazolo[1,5-a]pyridin-5-ylamino)cyclohexanol] | 0.005 to 250 | – | –
Cn1ncc2ccc(Nc3nc4cccc(NC5CCCNC5)n4n3)cc21 (stereo in doubt) [Example 463, (R)-N^2-(1-methyl-1H-indazol-6-yl)-N^5-(piperidin-3-yl)-[1,2,4]triazolo[1,5-a]pyridin-2,5-diamine] | – | – | IC50 [2]: 500 to 1000 nM
O[C@@H]1CCC(Nc2cccc3nc(Nc4ccc(C(F)(F)F)cc4)nn23)C1 (stereo in doubt) [Example 420, (1R,3R)-3-(2-(4-(trifluoromethyl)phenylamino)-[1,2,4]triazolo[1,5-a]pyridin-5-ylamino)cyclopentanol] | – | – | IC50 [2]: 250 to 500 nM
CC1(C)C(=O)Nc2cc(Nc3nc4cccc(N[C@H]5CC[C@@](C)(O)CC5)n4n3)ccc21 [Example 163, cis-6-(5-(4-hydroxy-4-methylcyclohexylamino)-[1,2,4]triazolo[1,5-a]pyridin-2-ylamino)-3,3-dimethylindolin-2-one] | – | 0.005 to 250 | –
Cc1n[nH]c2cc(Nc3nc4cccc(N[C@H]5CC[C@@H](O)CC5)n4n3)ccc12 [Example 351, cis-4-(2-(3-methyl-1H-indazol-6-ylamino)-[1,2,4]triazolo[1,5-a]pyridin-5-ylamino)cyclohexanol] | 0.005 to 250 | – | –
Cn1ncc2cc(Nc3nc4cccc(NC5CCOCC5)n4n3)ccc21 [Example 551, N^2-(1-methyl-1H-indazol-5-yl)-N^5-(tetrahydro-2H-pyran-4-yl)-[1,2,4]triazolo[1,5-a]pyridine-2,5-diamine] | – | – | IC50 [2]: 0.005 to 250 nM
Cc1n[nH]c2cc(Nc3nc4cccc(NC[C@H]5CCC(O)C5)n4n3)ccc12 (stereo in doubt) [Example 180, (1R,3S)-3-((2-(3-methyl-1H-indazol-6-ylamino)-[1,2,4]triazolo[1,5-a]pyridin-5-ylamino)methyl)cyclopentanol] | – | 0.005 to 250 | –
N[C@H]1CC[C@@H](Nc2cccc3nc(Nc4ccccc4)nn23)CC1 [Example 508, cis-N^5-(4-aminocyclohexyl)-N^2-phenyl-[1,2,4]triazolo[1,5-a]pyridine-2,5-diamine] | – | – | IC50 [2]: 250 to 500 nM
OC(Cc1cccc2nc(Nc3ccc(F)cc3)nn12)C1CCNCC1 (stereo not drawn) [Example 425, 2-(2-(4-fluorophenylamino)-[1,2,4]triazolo[1,5-a]pyridin-5-yl)-1-(piperidin-4-yl)ethanol] | – | – | IC50 [2]: 1000 to 10000 nM
c1cc(NC2CCOCC2)n2nc(Nc3cnc4cn[nH]c4c3)nc2c1 [compound 111] | – | 1000 to 10000 | –
O[C@H]1CC[C@@H](Nc2cccc3nc(Nc4ccn5ccnc5c4)nn23)CC1 [compound 112, cis-4-(2-(imidazo[1,2-a]pyridin-7-ylamino)-[1,2,4]triazolo[1,5-a]pyridin-5-ylamino)cyclohexanol] | – | 1000 to 10000 | –
COCc1n[nH]c2cc(Nc3nc4cccc(CN5CCNC(=O)C5)n4n3)ccc12 [Example 533, 4-((2-(3-(methoxymethyl)-1H-indazol-6-ylamino)-[1,2,4]triazolo[1,5-a]pyridin-5-yl)methyl)piperazin-2-one] | – | – | IC50 [2]: 0.005 to 250 nM
CN(c1ccccc1)c1cccc2nc(Nc3ccccc3)nn12 [Example 472, N^5-methyl-N^2,N^5-diphenyl-[1,2,4]triazolo[1,5-a]pyridin-2,5-diamine] | – | – | IC50 [2]: 1000 to 10000 nM
CNC(=O)c1ccc(Nc2nc3cccc(-c4ccc5[nH]ncc5c4)n3n2)cc1 [Example 426, 4-(5-(1H-indazol-5-yl)-[1,2,4]triazolo[1,5-a]pyridin-2-ylamino)-N-methylbenzamide] | – | – | IC50 [2]: 0.005 to 250 nM
c1ccc(-c2cccc3nc(Nc4ccc5cnoc5c4)nn23)cc1 [compound 48, N-(5-phenyl-[1,2,4]triazolo[1,5-a]pyridin-2-yl)benzo[d]isoxazol-6-amine] | – | 1000 to 10000 | –
Cc1n[nH]c2cc(Nc3nc4cccc(NC5CCOC5)n4n3)ccc12 (stereo in doubt) [Example 167, (R)-N^2-(3-methyl-1H-indazol-6-yl)-N^5-(tetrahydrofuran-3-yl)-[1,2,4]triazolo[1,5-a]pyridin-2,5-diamine] | – | 0.005 to 250 | –
Nc1n[nH]c2ccc(-c3cccc4nc(Nc5ccccc5)nn34)cc12 [Example 511, 5-(3-amino-1H-indazol-5-yl)-N-phenyl-[1,2,4]triazolo[1,5-a]pyridin-2-amine] | – | – | IC50 [2]: 250 to 500 nM
CC(CN)Cc1cccc2nc(Nc3ccccc3)nn12 (stereo in doubt) [Example 459, (S)-5-(3-amino-2-methylpropyl)-N-phenyl-[1,2,4]triazolo[1,5-a]pyridin-2-amine] | – | – | IC50 [2]: 1000 to 10000 nM
CNCc1nc2ccc(-c3cccc4nc(Nc5ccccc5)nn34)cc2o1 [Example 424, 5-(2-((methylamino)methyl)benzo[d]oxazol-6-yl)-N-phenyl-[1,2,4]triazolo[1,5-a]pyridin-2-amine] | – | – | IC50 [2]: 500 to 1000 nM
COc1cccc(Nc2nc3cccc(N[C@H]4CC[C@@H](O)CC4)n3n2)n1 [Example 342, cis-4-(2-(6-methoxypyridin-2-ylamino)-[1,2,4]triazolo[1,5-a]pyridin-5-ylamino)cyclohexanol] | 1000 to 10000 | – | –
Cc1nc2cc(Nc3nc4cccc(-c5ccccc5)n4n3)ccc2[nH]1 [compound 46, N-(2-methyl-1H-benzo[d]imidazol-5-yl)-5-phenyl-[1,2,4]triazolo[1,5-a]pyridin-2-amine] | – | 0.005 to 250 | –
O=C1Cc2ccc(Nc3nc4cccc(N[C@H]5CC[C@@H](O)CC5)n4n3)cc2N1CCO [Example 185, cis-6-(5-(4-hydroxycyclohexylamino)-[1,2,4]triazolo[1,5-a]pyridin-2-ylamino)-1-(2-hydroxyethyl)indolin-2-one] | – | 250 to 500 | –
N#Cc1ccc(Nc2nc3cccc(N[C@H]4CC[C@@H](O)CC4)n3n2)c(F)c1 [Example 341, cis-3-fluoro-4-(5-(4-hydroxycyclohexylamino)-[1,2,4]triazolo[1,5-a]pyridin-2-ylamino)benzonitrile] | 1000 to 10000 | – | –

More lines, main results first:

IC50 [1] [nM] | IC50 [3] [nM] | SMILES | also measured
0.005 to 250 | – | CNC(=O)c1ccc(Nc2nc3cccc(-c4ccc5nc(C)[nH]c5c4)n3n2)cc1 [Example 244, N-methyl-4-(5-(2-methyl-1H-benzo[d]imidazol-6-yl)-[1,2,4]triazolo[1,5-a]pyridin-2-ylamino)benzamide] | –
– | 0.005 to 250 | Cc1n[nH]c2cc(Nc3nc4cccc(CN5CCCC(F)(F)C5)n4n3)ccc12 [Example 184, 5-((3,3-difluoropiperidin-1-yl)methyl)-N-(3-methyl-1H-indazol-6-yl)-[1,2,4]triazolo[1,5-a]pyridin-2-amine] | –
– | 0.005 to 250 | Cc1n[nH]c2cc(Nc3nc4cccc(CNCC(N)=O)n4n3)ccc12 [Example 186, 2-((2-(3-methyl-1H-indazol-6-ylamino)-[1,2,4]triazolo[1,5-a]pyridin-5-yl)methylamino)acetamide] | –
0.005 to 250 | – | Nc1n[nH]c2cc(Nc3nc4cccc(CC5CCC(O)CC5)n4n3)ccc12 (stereo not drawn) [Example 208, 4-((2-(3-amino-1H-indazol-6-ylamino)-[1,2,4]triazolo[1,5-a]pyridin-5-yl)methyl)cyclohexanol] | –
– | 250 to 500 | CNC(=O)c1ccc(Nc2nc3cccc(-c4cccc(CCN)c4)n3n2)cc1 [compound 11, 4-(5-(3-(2-aminoethyl)phenyl)-[1,2,4]triazolo[1,5-a]pyridin-2-ylamino)-N-methylbenzamide] | –
1000 to 10000 | – | O=C1NCCCN1Cc1cccc2nc(Nc3ccc(C(F)(F)F)cc3)nn12 [Example 286, 1-((2-(4-(trifluoromethyl)phenylamino)-[1,2,4]triazolo[1,5-a]pyridin-5-yl)methyl)tetrahydropyrimidin-2(1H)-one] | –
1000 to 10000 | – | OC[C@@H]1CCCN1c1cccc2nc(Nc3ccc(C(F)(F)F)cc3)nn12 [Example 289, (S)-(1-(2-(4-(trifluoromethyl)phenylamino)-[1,2,4]triazolo[1,5-a]pyridin-5-yl)pyrrolidin-2-yl)methanol] | –
1000 to 10000 | – | OCC1CCN(Cc2cccc3nc(Nc4ccc(C(F)(F)F)cc4)nn23)CC1 [Example 274, (1-((2-(4-(trifluoromethyl)phenylamino)-[1,2,4]triazolo[1,5-a]pyridin-5-yl)methyl)piperidin-4-yl)methanol] | –
1000 to 10000 | – | O[C@H]1CC[C@@H](Nc2cccc3nc(Nc4ccncc4)nn23)CC1 [Example 389, cis-4-(2-(pyridin-4-ylamino)-[1,2,4]triazolo[1,5-a]pyridin-5-ylamino)cyclohexanol] | –
– | 1000 to 10000 | NC(=O)c1cc(Nc2nc3cccc(-c4ccccc4)n3n2)ccn1 [compound 51, 4-(5-phenyl-[1,2,4]triazolo[1,5-a]pyridin-2-ylamino)picolinamide] | –
0.005 to 250 | – | OCCNc1cc(-c2cccc3nc(Nc4ccc(C(F)(F)F)cc4)nn23)ccn1 [Example 312, 2-(4-(2-(4-(trifluoromethyl)phenylamino)-[1,2,4]triazolo[1,5-a]pyridin-5-yl)pyridin-2-ylamino)ethanol] | –
– | 500 to 1000 | CNC(=O)c1ccc(Nc2nc3cccc(-c4cccc(C(N)=O)c4)n3n2)cc1 [compound 18, 4-(5-(3-carbamoylphenyl)-[1,2,4]triazolo[1,5-a]pyridin-2-ylamino)-N-methylbenzamide] | –
– | 0.005 to 250 | Cn1nnc2ccc(Nc3nc4cccc(-c5cccc(O)c5)n4n3)cc21 [compound 28, 3-(2-(1-methyl-1H-benzo[d][1,2,3]triazol-6-ylamino)-[1,2,4]triazolo[1,5-a]pyridin-5-yl)phenol] | –
– | 0.005 to 250 | Oc1cccc(-c2cccc3nc(Nc4ccccc4)nn23)c1 [Example 92] | –
– | 250 to 500 | CNC(=O)c1ccc(Nc2nc3cccc(-c4cccc(OC)c4)n3n2)cc1 [compound 20, 4-(5-(3-methoxyphenyl)-[1,2,4]triazolo[1,5-a]pyridin-2-ylamino)-N-methylbenzamide] | –
0.005 to 250 | – | O[C@H]1CC[C@@H](Nc2cccc3nc(Nc4ccc(Cl)cc4)nn23)CC1 [Example 353, cis-4-(2-(4-chlorophenylamino)-[1,2,4]triazolo[1,5-a]pyridin-5-ylamino)cyclohexanol] | –
